pEC50: −log10 of the molar value. Structures can show the parent of a compound that is named as a salt. Where only a bound is given, the exact number is not on record here.

The target in one assay is T1, parathyroid cell calcium receptor (Bos taurus, UniProt P35384).
T1 sequence (P35384 21-1085 limits assumed): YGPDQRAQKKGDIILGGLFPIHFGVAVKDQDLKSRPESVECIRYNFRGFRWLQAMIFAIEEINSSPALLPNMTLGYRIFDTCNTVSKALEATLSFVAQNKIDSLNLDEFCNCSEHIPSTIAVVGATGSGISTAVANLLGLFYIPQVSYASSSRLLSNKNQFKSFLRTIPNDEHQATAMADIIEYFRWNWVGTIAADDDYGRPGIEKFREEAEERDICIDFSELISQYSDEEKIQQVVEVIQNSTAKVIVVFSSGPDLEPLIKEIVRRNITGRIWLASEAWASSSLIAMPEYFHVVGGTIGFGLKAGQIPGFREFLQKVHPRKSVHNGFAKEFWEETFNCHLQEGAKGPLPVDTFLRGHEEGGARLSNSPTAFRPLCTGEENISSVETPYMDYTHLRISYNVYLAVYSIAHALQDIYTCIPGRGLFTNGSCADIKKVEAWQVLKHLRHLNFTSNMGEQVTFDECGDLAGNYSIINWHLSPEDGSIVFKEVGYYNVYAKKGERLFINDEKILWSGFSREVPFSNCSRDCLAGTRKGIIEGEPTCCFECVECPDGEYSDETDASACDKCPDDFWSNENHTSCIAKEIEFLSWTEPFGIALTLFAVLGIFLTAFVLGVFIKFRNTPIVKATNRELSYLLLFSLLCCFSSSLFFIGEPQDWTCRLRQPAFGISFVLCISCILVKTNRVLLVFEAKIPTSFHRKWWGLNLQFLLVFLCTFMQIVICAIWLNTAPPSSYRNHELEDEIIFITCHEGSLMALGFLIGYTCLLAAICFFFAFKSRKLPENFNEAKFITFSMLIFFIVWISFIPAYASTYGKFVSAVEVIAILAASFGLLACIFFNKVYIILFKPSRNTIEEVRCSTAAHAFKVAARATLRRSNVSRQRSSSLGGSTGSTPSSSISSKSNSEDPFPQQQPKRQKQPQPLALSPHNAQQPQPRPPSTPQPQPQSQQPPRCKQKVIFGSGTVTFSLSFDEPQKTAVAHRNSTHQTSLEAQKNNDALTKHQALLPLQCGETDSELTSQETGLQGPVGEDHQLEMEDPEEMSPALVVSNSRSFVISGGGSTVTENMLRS
The experiment in a line: cell-based. In kind it is cell-based.
Conditions: not given
Take `CCCCCCCCCCCCCC(=O)O[C@@H]1[C@@H](C)[C@@]2(O)[C@@H](C=C(CO)C[C@]3(O)C(=O)C(C)=C[C@@H]23)[C@@H]2C(C)(C)[C@]12OC(C)=O` [PMA, phorbol myristate acetate, reference compound]: the “effect on mobilization of intracellular Ca^2+ elicited by molecular polycations” value was “depressed”.

The assay is the same for the next values; noted with them: 1 μM.
As for `CC1=C(C(=O)OC(C)C)C(c2cccc3nonc23)C([N+](=O)[O-])=C(C)N1` (single isomer, unassigned; (-)) [(-) 202-791, reference compound], the “effect on basal [Ca^2+]i or increases evoked by extracellular Ca^2+” value was “None of the dihydropyridines tested”.

On to `COC(=O)C1=C(C)NC(C)=C([N+](=O)[O-])C1c1ccccc1C(F)(F)F` (stereo not drawn) [BAY K 8644, reference compound], for which the “effect on basal [Ca^2+]i or increases evoked by extracellular Ca^2+” value was “None of the dihydropyridines tested”.

Staying with this assay, now noted: 100 μM.
Take `COc1ccc([C@@H]2Sc3ccccc3N(CCN(C)C)C(=O)[C@@H]2OC(C)=O)cc1` [diltiazem, reference compound]: the “effective at 100 μM (as verapamil and D-600)” value is “effective”.

The assay is the same for the next values; noted with them: 400 μM.
Take `N=C(N)NCCC[C@H](N)C(=O)NCCCNCCCNCCCCCNC(=O)[C@H](CC(N)=O)NC(=O)Cc1ccc(O)cc1O` [Argiotoxin-636, reference compound]: the “increases in [Ca^2+]i” value is reported as “did not elicit increases” and the “potentiation of cytosolic Ca^2+ responses to extracellular Ca^2+” value is “did potentiate”.

Staying with this assay, now noted: 500 μM.
Turning to `CCCC(=O)N[C@@H](Cc1ccc(O)cc1)C(=O)NCCCCNCCCNCCCN` [Philanthotoxin-433, reference compound], the “effect on intracellular Ca^2+” value is given as “without effect”.

The same assay, now with this note: 100 to 300 μM.
Turning to `N=C(N)NCCC[C@H](N)C(=O)NCCCNCCCNCCCCCNC(=O)[C@H](CC(N)=O)NC(=O)Cc1ccc(O)cc1O` [Argiotoxin-636, reference compound], the “increases in [Ca^2+]i” value is “had no effect”.

Still in this assay, the particulars now being: Table 6; bovine parathyroid cells; read-out: EC50 PARATHYROID
One may read the pEC50 as −log10 of the EC50, conventionally taken in molar units. On to `COc1cccc([C@H](C)NCCCc2ccccc2)c1` [NPS S-467], for which the pEC50 is below 4.52. Same read-out and setting: to `C[C@@H](NCCC(c1ccccc1)c1ccccc1)c1ccccc1` [R-Fendiline] belongs 5.05.

Still in this assay, the particulars now being: Table 7; parathyroid cell calcium receptor; read-out: EC50.
On to `COc1ccc(OC)c([C@@H](C)NCCCc2ccccc2)c1` [7Z(R-)], for which the pEC50 is below 4.52. For the compound `COc1ccc(OC)c([C@H](C)NCCCc2ccccc2)c1` [7Z(S-)], the pEC50 is below 4.00. Still for that read-out and setting: to `c1ccc(CNCCC(c2ccccc2)c2ccccc2)cc1` [Compound 1A] belongs 3.78; to `CC(NCCCc1ccccc1)c1ccccc1` (stereo not drawn) [Compound 1D], 4.32. On the same count and under the same terms, to `CCC(NCCC(c1ccccc1)c1ccccc1)c1ccccc1` (stereo not drawn) [Compound 1E] belongs 3.91; to `CC(NCCCCc1ccccc1)c1ccccc1` (stereo not drawn) [Compound 1S], 3.89; to `C[C@H](NCCCc1ccccc1)C1CCCCC1` [Compound 7Y], below 4.52. Still for that read-out and setting: to `COc1cccc([C@H](C)NCCCc2ccc(C)cc2)c1` [Compound 8Y] belongs below 4.52. Take `COc1cccc([C@H](C)NCCCc2ccc(OC)c(OC)c2)c1` [Compound 20K]: the pEC50 was below 4.52. Same read-out and setting: to `COc1cccc([C@H](C)NCCCc2ccccc2)c1` [NPS S-467] belongs below 4.52. The same measure, in the same setting: to `C[C@@H](NCCC(c1ccccc1)c1ccccc1)c1ccccc1` [R-Fendiline] belongs 5.05; to `C[C@H](NCCC(c1ccccc1)c1ccccc1)c1ccccc1` [S-Fendiline], below 4.82.

The assay is the same for the next values; noted with them: Table 8 (arylalkylamine calcimimetics); parathyroid cell calcium receptor; read-out: EC50.
For the compound `COc1cccc([C@@H](C)NC2CCc3ccccc3C2)c1` (stereo partly drawn) [5W/5Y], the pEC50 is 5.44.

Turning to `CC(NCCC(c1ccccc1)c1ccccc1)c1cccc2ccccc12` (stereo not drawn) [Compound 3U], the pEC50 is 6.19. On the same count and under the same terms, to `COc1cccc([C@@H](C)NCCCc2cccc(F)c2)c1` [Compound 4N] belongs 6.10; to `COc1cccc([C@@H](C)NCCCc2ccc(F)cc2)c1` [Compound 4P], 5.80; to `COc1cccc(C(C)NCCC(C)c2ccccc2Cl)c1` (stereo not drawn) [Compound 4Y], 5.89. `COc1cccc(C(C)NC(C)c2cccc3ccccc23)c1` (stereo not drawn) [Compound 6E]: the pEC50 is 5.57. On the same count and under the same terms, to `CCOc1cccc([C@@H](C)NCCCc2ccccc2)c1` [Compound 6R] belongs 5.47; to `CCOc1cccc([C@@H](C)NCCCc2ccccc2Cl)c1` [Compound 6T], 5.54.

In the case of `COc1cccc([C@@H](C)NCCCc2ccccc2OC)c1` [Compound 8U, (R)-(+)-N-3-(2-Methoxyphenyl)-1-propyl-3-methoxy-α-methylbenzylamine hydrochloride], the pEC50 was 6.36. Still for that read-out and setting: to `COc1cccc([C@@H](C)NCCCc2ccc(C)cc2)c1` [Compound 8X] belongs 6.12; to `C[C@@H](NCc1ccc2ccccc2c1)c1cccc2ccccc12` [Compound 9C], 6.22; to `CC(C)C(N[C@H](C)c1cccc2ccccc12)c1ccc2ccccc2c1` (stereo partly drawn) [Compound 10F], 6.05. Same read-out and setting: to `CCOC(=O)COc1cccc([C@@H](C)NCc2ccc3ccccc3c2)c1` [Compound 11D] belongs 5.74. Still for that read-out and setting: to `COc1cccc([C@@H](C)NCCCc2ccccc2C)c1` [Compound 12U, (R)-N-3-(2-Methylphenyl)-1-propyl-3-methoxy-α-methylbenzylamine hydrochloride] belongs 5.92.

In the case of `COc1cccc([C@@H](C)NCCCc2cccc(C)c2)c1` [Compound 12V, (R)-N-3-(3-Methylphenyl)-1-propyl-3-methoxy-α-methylbenzylamine hydrochloride], the pEC50 was 6.38.

`CCCOc1ccc(CN[C@H](C)c2cccc3ccccc23)cc1` [Compound 13Q]: the pEC50 is around 6.10. Still for that read-out and setting: to `C[C@@H](NCc1ccc(Cl)c(Cl)c1)c1cccc2ccccc12` [Compound 13R] belongs 6.60. For the compound `C[C@@H](NCc1ccc(C(F)(F)F)cc1)c1cccc2ccccc12` [Compound 13S], the pEC50 is above 6.89. With `COc1ccc(CN[C@H](C)c2cccc3ccccc23)cc1` [Compound 13U], the pEC50 was 6.72. The same measure, in the same setting: to `C[C@@H](NCc1ccc2c(c1)OCCO2)c1cccc2ccccc12` [Compound 13X] belongs above 6.12; to `COc1ccc([C@H](C)N[C@H](C)c2cccc3ccccc23)cc1` [Compound 14V], 5.77; to `COc1ccc(CN[C@H](C)c2cccc3ccccc23)cc1C` [Compound 16Q], 7.40. The same measure, in the same setting: to `C[C@@H](NCc1ccc2c(c1)OCO2)c1cccc2ccccc12` [Compound 16R] belongs 6.44; to `COc1ccc(CN[C@H](C)c2cccc3ccccc23)cc1F` [Compound 16T], 7.40; to `Cc1ccc(CN[C@H](C)c2cccc3ccccc23)cc1C` [Compound 16V], above 6.89.

For the compound `CCOc1ccc(CN[C@H](C)c2cccc3ccccc23)cc1` [Compound 16W], the negative-log EC50 (pEC50) is 6.23. On the same count and under the same terms, to `CSc1ccc(CN[C@H](C)c2cccc3ccccc23)cc1` [Compound 16X] belongs 7.00; to `COc1ccc([C@@H](C)N[C@H](C)c2cccc3ccccc23)cc1Cl` [Compound 17X, (R,R)-N-(1-Ethyl-4'-methoxy-3'-chlorophenyl)-1-(1-naphthylethyl)amine], 7.70; to `COc1cccc([C@@H](C)NC2CCN(Cc3ccccc3)CC2)c1` [Compound 20F], above 6.00. The same measure, in the same setting: to `COc1ccc(CCCN[C@H](C)c2cccc(OC)c2)cc1` [Compound 20I] belongs below 6.00.

`COc1cccc([C@@H](C)NCCCc2ccc(OC)c(OC)c2)c1` [Compound 20J]: the negative logarithm of the EC50 (pEC50) was below 5.52.

Take `COc1cccc(C(C)NC(C)CCc2ccccc2)c1` (stereo not drawn) [Compound 20R]: the pEC50 is 5.62. Regarding `CCC(CCc1ccccc1)NC(C)c1cccc(OC)c1` (stereo not drawn) [Compound 20S], the pEC50 was 5.38. Still for that read-out and setting: to `COc1cccc([C@@H](C)N[C@H](C)CCc2ccccc2)c1` [Compound 21D] belongs 5.52; to `C[C@H](CCc1ccccc1)N[C@H](C)c1cccc2ccccc12` [Compound 21F], 6.42; to `C[C@@H](CCc1ccccc1)N[C@H](C)c1cccc2ccccc12` [Compound 21G], 5.96. Still for that read-out and setting: to `COc1cccc([C@@H](C)NCCCc2ccccc2C(F)(F)F)c1` [Compound 21O] belongs 6.59. On to `COc1cccc([C@@H](C)NCCCc2ccc(C(F)(F)F)cc2)c1` [Compound 21Q], for which the pEC50 is 5.85.

Still in this assay, the particulars now being: bovine parathyroid cells, or Xenopus oocytes expressing calcium receptors.
As for `N[C@@]1(C(=O)O)CC[C@@H](C(=O)O)C1` (relative stereo) [trans-ACPD, reference compound], the “response to mGluR agonists” value is reported as “did not respond”.

The assay is the same for the next values; noted with them: in words.
Regarding `CC(NCCCc1ccccc1)c1ccccc1` (stereo not drawn) [Compound 1D], the relative potency result was “nearly as potent as the parent molecule”.

Staying with this assay, now noted: parathyroid cell calcium receptor; […]; read-out: EC50.
As to `COc1cccc([C@@H](C)NCCCc2ccccc2OC)c1` [Compound 8U, (R)-(+)-N-3-(2-Methoxyphenyl)-1-propyl-3-methoxy-α-methylbenzylamine hydrochloride], the pEC50 is above 5.30. Take `COc1cccc([C@@H](C)NCCCc2ccccc2C)c1` [Compound 12U, (R)-N-3-(2-Methylphenyl)-1-propyl-3-methoxy-α-methylbenzylamine hydrochloride]: the pEC50 was above 5.30.

On to `COc1cccc([C@@H](C)NCCCc2cccc(C)c2)c1` [Compound 12V, (R)-N-3-(3-Methylphenyl)-1-propyl-3-methoxy-α-methylbenzylamine hydrochloride], for which the pEC50 was above 5.30. As for `COc1ccc([C@@H](C)N[C@H](C)c2cccc3ccccc23)cc1Cl` [Compound 17X, (R,R)-N-(1-Ethyl-4'-methoxy-3'-chlorophenyl)-1-(1-naphthylethyl)amine], the pEC50 was above 5.30.

(Values after patent US5688938A, “Calcium receptor-active molecules” (priority 1995, dated 1997).)
